Results on four molecules are retold here after paper PMC9014415, “Repositioning of a Diaminothiazole Series Confirmed to Target the Cyclin-Dependent Kinase CRK12 for Use in the Treatment of African Animal Trypanosomiasis” (Journal of Medicinal Chemistry, 2022).

“Also recorded” adds a separate entry of the source.

Data set [1] has as its system T. congolense. As to the kind of experiment: In vitro drug sensitivity assay, T. congolense (IL3000). Type of data set: cell-based. To be noted: Trypanosoma congolense; IL3000 strain. As for the experimental part: 1.2 In vitro drug sensitivity assays - Trypanosoma congolense
EC50 values for test compounds against T. congolense (IL3000 strain) were conducted as previously described3 with minor modifications.4 Briefly, trypanosome cell densities were determined using a CASY cell counter (Schärfe) and diluted to a seeding density of 2 x 105 trypanosomes/mL. BSF trypanosomes were grown in HMI-9 (IMDM) media supplemented with 20% (v/v) bovine serum.1 Test compounds were resuspended to a final concentration of 10 mg/mL in DMSO. Assays plates were incubated at 34 °C with 5 % CO2, for a total of 69 h, prior to addition of 10 µL of Resazurin (12.5 mg in 100 mL phosphate buffered saline, Aldrich) into each well, followed by a further 3 h incubation. Absorbance was read using a SpectraMax (Gemini XS) fluorescence reader at an excitation wavelength of 536 nm and an emission wavelength of 588 nm. EC50 values were determined using SOFTmax Pro 5.2 analysis software. All experiments were conducted with technical duplicates, and at least three biological replicates. […]

In data set [2] the test system is T. congolense. The experiment in a line: NMRI mouse efficacy model, T. congolense. In kind it is in vivo, Trypanosoma congolense. To be noted: for Efficacy, T. congo / Efficacy at 10 mg/kg SC for 4 days, T. congo: mice; for Efficacy at 10 mg/kg SC for 4 days, T. congo: 10 mg/kg SC once daily for 4 days. As for the experimental part:
(§1) 3. In vivo efficacy studies
(§2) The T. congolense (IL3000) and T. vivax (ILRAD V34) cell lines7, 8, both originating from Kenya, were used in the following in vivo mouse studies. For studies in cattle, either Trypanosoma congolense (savannah) KONT 2/133, 224) or T. vivax STIB 719 was used.
(§3) 3.1 Mouse efficacy studies for T. brucei brucei.
(§4) Mouse efficacy studies for T. brucei brucei were carried out as previously detailed.9 3.2 NMRI mouse efficacy studies for T. congolense and T. vivax.
(§5) Mouse models of infections were carried out using standardized protocols. Briefly, 1 mL samples of cryopreserved T. congolense, or T. vivax-infected blood harvested directly from an infected mouse, were diluted with Hanks Balanced Salt Solution plus 20 mM glucose (HBSS+G) to 5 x 10^4 trypomastigotes/mL (5 x 105 for T. vivax). Female mice (NMRI) were inoculated IP on day 0 with 0.2 mL/animal (equivalent to ~ 1 x 104 T. congolense or ~ 1 x 105 T. vivax per animal). The level of parasitaemia was inspected microscopically on day 3 using tail blood smears, counting 20 high powered fields (× 400 magnification). For untreated or treated animals whose tail smears exceeded 50 parasites/field, precise parasite levels were established using a Neubauer haemocytometer; mice with a parasite burden over 1 x 108 were promptly and humanely terminated (T. congolense only, from our experience the mice will not survive for a further 24 h). Alternatively, in the case of T. vivax-infected mice the immune system will bring the infection to a sub-lethal level (below limit of detection) […]
(§6) followed by cycles of high and low parasitaemia. Eventually mice infected with T. vivax succumb to the infection between 30 – 60 days post-infection.
(§7) Suppression of parasitaemia - mouse
(§8) On day 3 post-infection, animals were randomly allocated to groups, with 3 mice/group. Infected animals were dosed with one of the following: diaminazene diaceturate IP. – 40 mg/kg once only as a control (early-stage trypanocide used to clear the parasites in the systemic circulation and in tissues other than CNS), compound 1 (SC) at 3, 10, 30 and 50 mg free base/kg twice and once daily for 4 d or a single dose, or compound 2 (SC) at 3 and 10 mg free base /kg once daily for 4 d, once daily for 2 d or a single dose, one group of 3 mice acted as an untreated control group. The dose solutions were prepared daily, using 5% DMSO: 40% PEG400: 55% MilliQ H2O for test compounds and 10% DMSO: 90% peanut oil for standard drugs. Alternatively, compound 2 was delivered for 48 h via SC implanted ALZET osmotic pumps (6, 12, 25 and 50 mg free base/mL, vehicle: 50% DMSO […]
(§9) and 50% deionized water).
(§10) Response to treatment was determined by monitoring parasitaemia twice a week until day 21.
(§11) After day 21, the mice were checked once a week until 63 d post-treatment. Mice surviving to the end of the experiment, and with blood smears clear of parasites, were considered cured. […]
(§12) The parasites were obtained from a donor calf. This isolate is resistant to diminazene (20 mg/kg) and isometamidium (1 mg/kg) in cattle, and diminazene (7 mg/kg) and isometamidium (>1 mg/kg) in mice. Calves were parasitaemic by study day 6. Calves (n = 5) were treated with compound 1 (5 mg/kg, SC, twice 12 h apart) on study

The next data set deals with T. vivax. The experiment in a line: NMRI mouse efficacy model, T. vivax. To be noted: for Efficacy, T. vivax / Efficacy at 10 mg/kg SC for 4 days, T. vivax: mice; for Efficacy at 10 mg/kg SC for 4 days, T. vivax: 10 mg/kg SC once daily for 4 days. Type of data set: in vivo, Trypanosoma vivax. The procedure:
as §1, §2, §3, §4, §5, §6, §7, §8, §9, §10, §11, §12

The nature of data set [3]: PK in female NMRI mice, SC. Type of data set: in vivo, mouse. The procedure: 2.5 PK and maximum tolerated dose - mouse
PK studies in female NMRI mice (Figure S1): Test compounds 1, 2 and 10 were dosed SC at 10 mg free base/kg (dose volume 10 mL/kg; dose vehicle: 5% (v/v) DMSO, 40% polyethylene glycol 400 (PEG400) and 55% deionized water) to female NMRI mice (n = 3). Blood samples (10 μL) were taken from each mouse at 0.08, 0.25, 0.5, 1, 2, 4, 6, 8 h post dose (24 h post dose for compounds 2 and 10 only) and mixed with two volumes of deionized water (20 μL). Alternatively, compound 2 was delivered for 48 h via SC implanted ALZET osmotic pumps (10, 25 and 50 mg free base/mL, vehicle: 50% DMSO and 50% deionized water) to the female NMRI mouse (n = 3). Blood samples (10 μL) from each mouse were taken at 1, 3, 6, 24, 30 and 48 h post-dose and mixed with two volumes of deionized water (20 μL). […]

As for `CC(C)CS(=O)(=O)N[C@H]1CC[C@H](Nc2nc(N)c(C(=O)c3c(Cl)cccc3Cl)s2)CC1` [Compound 10, N-((trans)-4-((4-Amino-5-(2,6-dichlorobenzoyl)thiazol-2-yl)amino)cyclohexyl)-2-methylpropane-1-sulfonamide], the concentration giving a half-maximal response (EC50) in the data set with T. congolense [1] turned out to be 0.4 nM. Also, the “Efficacy, T. congo” value with T. congolense [2] (3 mg/kg (head: SC for 4 days)) is “Full cure (3/3) 3 mg/kg”. In addition, the “Efficacy, T. vivax” value in the data set with T. vivax (3 mg/kg for 4 days) is recorded as “Full cure (3/3) 3 mg/kg”.
`CC(C)CS(=O)(=O)N[C@H]1CC[C@H](Nc2nc(N)c(C(=O)c3c(F)cccc3F)s2)CC1` [Compound 1, N-((trans)-4-((4-Amino-5-(2,6-difluorobenzoyl)thiazol-2-yl)amino)cyclohexyl)-2-methylpropane-1-sulfonamide] displayed a bioavailability at 8 h in data set [3] (mouse, whole blood, 10 mg/kg SC) of 74%. Moreover, the half-life at 8 h in data set [3] (mouse, whole blood, 10 mg/kg SC, read-out: T½) was 1 h. Also, the half-life in data set [3] (mouse, whole blood, 10 mg/kg SC, read-out: T½ (converted)) was ~1 h. This molecule also registered an EC50 in the data set with T. congolense [1] of 18 nM. Besides, the “Acute T. congolense efficacy in mice” value in the data set on T. congolense [2] (3 mg/kg bid SC for 4 days) is “Partial cure (2/3)”; in the data set with T. congolense [2] (10 mg/kg bid SC for 4 days) it was “Full cure”; with T. congolense [2] (30 mg/kg, single dose, SC) it was “Partial cure: (2/3)”; in the data set with T. congolense [2] (50 mg/kg single dose, SC), “sterile cure; also recorded: Full cure”. For the same molecule, in the data set on T. congolense [2] (10 mg/kg once daily for 4 days, SC), the “T. congolense efficacy in mice” value is “sterile cure”. Also, the “Acute T. vivax efficacy in mice” value is listed as “Full cure” in the data set with T. vivax (3 mg/kg bid SC for 4 days); “Full cure” in the data set on T. vivax (10 mg/kg bid SC for 4 days); “Partial cure (1/3)” in the data set on T. vivax (10 mg/kg, single dose, SC); “sterile cure; also recorded: Full cure” in the data set on T. vivax (30 mg/kg, single dose, SC). In the data set with T. vivax (3 mg/kg once daily for 4 days, SC), the “T. vivax efficacy in mice” value is “sterile cure”.
In the data set on T. congolense [1], `CNCc1cc(F)c(C(=O)c2sc(N[C@H]3CC[C@H](NS(=O)(=O)CC(C)C)CC3)nc2N)c(F)c1.Cl` [Compound 8, N-((trans)-4-((4-Amino-5-(2,6-difluoro-4-((methylamino)methyl)benzoylthiazol-2-yl)amino)cyclohexyl))-2-methylpropane-1-sulfonamide Hydrochloride] registered an EC50 of 1.3 nM. Also, the “Efficacy at 10 mg/kg SC for 4 days, T. congo” value in the data set with T. congolense [2] is listed as “Full cure (3/3)”. Besides, in the data set with T. vivax, the “Efficacy at 10 mg/kg SC for 4 days, T. vivax” value is given as “Full cure (3/3)”.
`CC(C)CS(=O)(=O)N[C@H]1CC[C@H](Nc2nc(N)c(C(=O)c3c(F)cc(CN(C)C)cc3F)s2)CC1` [Compound 2, N-(trans)-[4-[[4-Amino-5-[4-(dimethylaminomethyl)-2,6-difluoro-benzoyl]thiazol-2-yl]amino]cyclohexyl]-2-methyl-propane-1-sulfonamide] returned a Cmax in data set [3] (mouse, blood, 10 mg/kg, single SC 10 mg free base/kg) of 818 ng/mL. Also, in data set [3] (mouse, blood, 10 mg/kg, single SC 10 mg free base/kg, read-out: AUC0-24 (converted)), the AUC(0-t) was 2160 ng·h/mL. For the same molecule, in data set [3] (mouse, blood, single SC 10 mg free base/kg, read-out: Cmin (8 h)), the concentration at 8 h was found to be 10 ng/mL. For the same molecule, the Cav in data set [3] (single SC 10 mg free base/kg) was 78 ng/mL. The half-maximal effective concentration (EC50) in the data set on T. congolense [1] amounted to 3.2 nM. Moreover, the “Efficacy in T. congolense-infected mice, implanted ALZET osmotic pumps” value in the data set on T. congolense [2] (SC pump delivery, all dose levels) is reported as “cured; also recorded: full cure”. In addition, the “Efficacy, T. congo” value in the data set on T. congolense [2] (3 mg/kg (head: SC for 4 days)) was “Partial cure (2/3)”; with T. congolense [2] (10 mg/kg once daily for 2 days) it was “Partial cure (2/3)”; in the data set on T. congolense [2] (10 mg/kg, regimen not restated, listed after the 3 mg/kg result), “Full cure”. Moreover, the “Efficacy at 10 mg/kg SC for 4 days, T. congo” value with T. congolense [2] (10 mg/kg) is reported as “fully curative; also recorded: Full cure; also recorded: Partial cure (1/3)”. The “Efficacy, T. vivax” value with T. vivax (3 mg/kg for 4 days, 3 mg/kg) was “Full cure (3/3) 3 and 10 mg/kg for 4 days 10 mg/kg for 2 days; also recorded: Full cure (3/3); 3 and 10 mg/kg for 4 days, 10 mg/kg for 2 days”; in the data set on T. vivax (10 mg/kg for 2 days, 10 mg/kg), “Full cure (3/3) 3 and 10 mg/kg for 4 days 10 mg/kg for 2 days; also recorded: Full cure (3/3); 3 and 10 mg/kg for 4 days, 10 mg/kg for 2 days”. The “Efficacy at 10 mg/kg SC for 4 days, T. vivax” value in the data set on T. vivax (10 mg/kg) is “fully curative; also recorded: Full cure (3/3) 3 and 10 mg/kg for 4 days 10 mg/kg for 2 days; also recorded: Full cure (3/3); 3 and 10 mg/kg for 4 days, 10 mg/kg for 2 days”.
